Reference: patent US20220264878A1, “HERBICIDAL COMPOSITION CONTAINING R-TYPE PYRIDYLOXY CARBOXYLIC ACID DERIVATIVE AND USE THEREOF” (Qingdao Kingagroot Chemical Compound Co., Ltd., priority 2019, published 2022)

Key:
Format in all cases: in vivo
Veronica didyma = test: Post-emergence foliage spray, pot culture, fresh weight inhibition (Tables 151-206; 20 days)
Protocol: (§1) Table 151-206: Digitaria sanguinalis, Amaranthus retroflexus, Conyza Canadensis, Capsella bursa-pastoris, Eleusine indica were collected in Huangdao of Shandong Province, Sinapis arvensis were collected in Sixian of Anhui Province, Alopecurus japonicus were collected in Tianchang of Anhui Province, Veronica didyma were collected in Siyang of Jiangsu Province.
(§2) The above weeds were cultivated by a pot culture method. […] Full and uniform weed seeds were selected, soaked in warm water at 25° C. for 6 hours, and germinated in a 28° C. biochemical incubator (darkness). The weed seeds that had just germinatedwere evenly placed on the surface of the soil and then covered with 0.5-1 cm soil according to the sizes of seeds.
(§3) The culture was carried out in a controllable sunlight greenhouse at 20 to 30° C., in natural light, and relative humidity of 57% to 72%.
(§4) The technical materials were all dissolved in acetone, and diluted with an aqueous solution containing 0.1% emulsifier Tween-80. The dilution is performed as required.
(§5) A ratio of the active ingredient A to the active ingredient B and amounts thereof in each group depends on the characteristics and toxicity of the two agents, as well as the main application purpose of a corresponding formulation. Based on the pre-tests in this study, the dosage of the active ingredient A and B applied alone and in combination were shown in the tables. Water containing the solvent and emulsifier same with the above groups but free of the agents was used as a blank control.
(§6) Table 1-48, 51-98, 101-148, 151-206: […] per treatment, that is, a total of 60 weeds were treated in one treatment.
(§7) Table 151-206: The agents were used for only once in the experiment. In the stage of weeds with 3˜4 leaves, the weeds were thinned out to maintain 15 weeds per pot and 45 weeds for each treatment, then continued to be cultured to 4˜5 leaves stage of grassy weeds, 5˜6 leaves stage of broadleaf weeds, and treated.
(§8) The well-cultured weeds were evenly placed on a platform with an area of 0.5 m^2, and a solution of agents was sprayed on the stems and leaves thereof by the 3WP-2000-type walking spray tower at a dosage of 450 kg/ha and at a spray pressure of 0.3 MPa. After all the solution was sprayed, the valve was closed. After 30 seconds, the door of the spray tower was opened, and the nutritional bowl was taken out. Then the valve was opened, and the spray tube was cleaned by spraying 50 ml of water.
(§9) A pot-culture method was employed. For the cultivation of weeds, please refer to the Section 1.1), and “Pesticide guidelines for laboratory bioactivity tests—herbicides”. As to a method for applying agents, please refer to the section 2.3.2), that is, a foliage treatment was employed. After the treatment, the weeds were routinely cultured in a greenhouse.
(§10) A method for investigating absolute number was employed, wherein whole seedlings of survival weeds were cut off with a blade along the soil surface, and the fresh weight of the weeds was weighed with an analytical balance. For dead weeds, the fresh weight thereof was zero.
(§11) Table 151-206: The investigation was performed after 20 days of the treatment for only once.
(§12) Theoretical fresh weight inhibition rate of a combination of two active ingredients in each group was calculated by the Gowing method (E0=X+Y−X*Y/100), and then compared with an actually measured inhibition rate (E), thereby effect of the combination (hereafter referred to as combined effect) on weeds was evaluated: the value of E-E0, which was greater than 10%, corresponded to a synergistic effect, the value of E-E0, which was less than −10%, corresponded to an antagonistic effect, and the value of E-E0, which was from −10% to 10%, corresponded to an additional effect.

Acalypha australis = test: Post-emergence foliage spray, pot culture, fresh weight inhibition (Tables 1-48, 51-98, 101-148; 24 days)
How it was run: (§13)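 Greenhouse pot plants (20–30 °C, natural light, 57–72% RH) were sprayed once on foliage at 450 kg/ha and 0.3 MPa, at the 5–6-leaf (grass) or 6–7-leaf (broadleaf) stage. Compounds were in acetone diluted with 0.1% Tween-80 water. Surviving shoots were weighed at 24 days; dead plants counted as zero.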

Amaranthus retroflexus = test: as above
How it was run: as §13

Chenopodium album = test: as above; settings: Table 96
How it was run: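 Pot-grown weeds were thinned to 15 per pot (45 per treatment) and sprayed on foliage at the 5–6-leaf stage for grasses or the 6–7-leaf stage for broadleaves. Agents were dissolved in acetone with 0.1% Tween-80 and applied at 450 kg/ha spray volume and 0.3 MPa. Plants were then kept in a greenhouse. Above-ground fresh weight of survivors, with dead plants counted as zero, gave inhibition versus a solvent/emulsifier blank.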

Solanum nigrum = test: as above
How it was run: as §13

[1] = test system: Veronica persica^2 (collected in Zhumadian of Henan Province); test: as above; settings: Table 88
How it was run: as §13

Conyza Canadensis = test: Post-emergence foliage spray, pot culture, fresh weight inhibition (Tables 151-206; 20 days)
Protocol: as §1, §2, §3, §4, §5, §6, §7, §8, §9, §10, §11, §12

[2] = B alone 75 g a.i./ha, 20 days after treatment
[3] = B alone 150 g a.i./ha, 20 days after treatment
[4] = B alone 300 g a.i./ha, 20 days after treatment
[5] = B alone 600 g a.i./ha, 20 days after treatment

For `c1cc[n+]2c(c1)-c1cccc[n+]1CC2` [diquat Dibromide monohydrate], the “Control effect (%) of B applied alone in corresponding dose” value (from here on “Control effect (%) of B applied alone”) (Veronica didyma; B 75 g a.i./ha, 20 days) was 5.5%, the “Control effect (%) of B applied alone” value (Veronica didyma; B 150 g a.i./ha, 20 days) was 12.6% and the “Control effect (%) of B applied alone” value (Veronica didyma; B 300 g a.i./ha, 20 days) was 41.3%. For the same molecule, the “Control effect (%) of B applied alone” value (Veronica didyma; B 600 g a.i./ha, 20 days) was 80.4%, the “Control effect (%) of B applied alone” value (Veronica didyma; [2]) was 5.5% and the “Control effect (%) of B applied alone” value (Veronica didyma; [3]) was 12.6%. The “Control effect (%) of B applied alone” value (Veronica didyma; [4]) was 41.3% and the “Control effect (%) of B applied alone” value (Veronica didyma; [5]) was 80.4%.

`C#CCN1C(=O)COc2cc(F)c(N3C(=O)C4=C(CCCC4)C3=O)cc21` [flumioxazin] was tested, and the “Control effect (%) of B applied alone” value (Acalypha australis; B 7.5 g a.i./ha) was 6.9%, the “Control effect (%) of B applied alone” value (Acalypha australis; B 15 g a.i./ha) was 13.7% and the “Control effect (%) of B applied alone” value (Acalypha australis; B 30 g a.i./ha) was 39.0%. For the same molecule, the “Control effect (%) of B applied alone” value (Acalypha australis; B 60 g a.i./ha) was 79.3%, the “Control effect (%) of B applied alone” value (Amaranthus retroflexus; flumioxazin 7.5 g a.i./ha) was 5.5% and the “Control effect (%) of B applied alone” value (Amaranthus retroflexus; flumioxazin 15 g a.i./ha) was 12.4%. The “Control effect (%) of B applied alone” value (Amaranthus retroflexus; flumioxazin 30 g a.i./ha) was 37.4%, the “Control effect (%) of B applied alone” value (Amaranthus retroflexus; flumioxazin 60 g a.i./ha) was 78.9% and the “Control effect (%) of B applied alone” value (Chenopodium album; 7.5 g a.i./ha) was 3.4%. For the same molecule, the “Control effect (%) of B applied alone” value (Chenopodium album; 15 g a.i./ha) was 12.8%, the “Control effect (%) of B applied alone” value (Chenopodium album; 30 g a.i./ha) was 37.3% and the “Control effect (%) of B applied alone” value (Chenopodium album; 60 g a.i./ha) was 78.8%.

With `O=C1C(Cl)C(CCl)CN1c1cccc(C(F)(F)F)c1` (stereo not drawn) [flurochloridone] the “Control effect (%) of B applied alone” value (Solanum nigrum; B 75 g a.i./ha) was 5.5%, the “Control effect (%) of B applied alone” value (Solanum nigrum; B 150 g a.i./ha) was 13.7% and the “Control effect (%) of B applied alone” value (Solanum nigrum; B 300 g a.i./ha) was 45.8%. The “Control effect (%) of B applied alone” value (Solanum nigrum; B 600 g a.i./ha) was 79.7%, the “Control effect (%) of B applied alone” value ([1]; 75 g a.i./ha) was 2.1% and the “Control effect (%) of B applied alone” value ([1]; 150 g a.i./ha) was 12.3%. The “Control effect (%) of B applied alone” value ([1]; 300 g a.i./ha) was 44.5% and the “Control effect (%) of B applied alone” value ([1]; 600 g a.i./ha) was 79.6%.

In the case of `C[n+]1ccc(-c2cc[n+](C)cc2)cc1` [paraquat dichloride], the “Control effect (%) of B applied alone” value (Conyza Canadensis; B 75 g a.i./ha, 20 days) is reported as 3.2%, the “Control effect (%) of B applied alone” value (Conyza Canadensis; B 150 g a.i./ha, 20 days) is reported as 17.2% and the “Control effect (%) of B applied alone” value (Conyza Canadensis; B 300 g a.i./ha, 20 days) is reported as 47.9%. The “Control effect (%) of B applied alone” value (Conyza Canadensis; B 600 g a.i./ha, 20 days) was 75.2%, the “Control effect (%) of B applied alone” value (Conyza Canadensis; [2]) was 3.2% and the “Control effect (%) of B applied alone” value (Conyza Canadensis; [3]) was 17.2%. The “Control effect (%) of B applied alone” value (Conyza Canadensis; [4]) was 47.9% and the “Control effect (%) of B applied alone” value (Conyza Canadensis; [5]) was 75.2%.
